Experimental data from patent publication US12624017B2, “Salt form of isoquinolinone type compound as rock inhibitor and preparation method therefor” (GUANGZHOU OCUSUN OPHTHALMIC BIOTECHNOLOGY CO., LTD., priority 2020, dated 2026).

Tested on: New Zealand rabbits with normal intraocular pressure
Test: Intraocular pressure reduction, normal intraocular pressure, eye drops in both eyes for 14 days (Operation I)
Format: in vivo, New Zealand white rabbits
Conditions: for Change in intraocular pressure: vs negative control
Source text: An intraocular pressure reduction effect and potential ocular toxicity of the compound of formula (I) were inspected with rabbits with normal intraocular pressure by repeated administration of eye drops for 14 days.
Male New Zealand white rabbits, aged 97 to 127 days, weighted 2.6-3.5 kg, purchased from Pizhou Oriental Breeding Co., Ltd.
The Male New Zealand white rabbits were randomly divided into 7 groups according to body weights, 6 rabbits/group. The animals in Groups 1 to 7 were administrated dropwise with a solvent/control/test article in both eyes in an administration volume of 50 μL/eye, once a day for 14 consecutive days, and the day of first administration was recorded as Day 1. The intraocular pressures of the animals were measured before administration, as well as at 1, 2, 4, 6, 8 and 10 h after administration, respectively. On Days 2 to 14, the intraocular pressures of animals in the K-115 administration group were measured at 1 h after daily administration; and intraocular pressures of the animals in the remaining groups were measured at 4 h after daily administration.

[1] = 4 mg/mL once a day, Day 2, 1 h after daily administration
[2] = 4 mg/mL once a day, Day 3, 1 h after daily administration
[3] = 4 mg/mL once a day, Day 4, 1 h after daily administration
[4] = 4 mg/mL once a day, Day 5, 1 h after daily administration
[5] = 4 mg/mL once a day, Day 6, 1 h after daily administration
[6] = 4 mg/mL once a day, Day 7, 1 h after daily administration
[7] = 4 mg/mL once a day, Day 8, 1 h after daily administration
[8] = 4 mg/mL once a day, Day 9, 1 h after daily administration
[9] = 4 mg/mL once a day, Day 10, 1 h after daily administration
[10] = 4 mg/mL once a day, Day 11, 1 h after daily administration
[11] = 4 mg/mL once a day, Day 12, 1 h after daily administration
[12] = 4 mg/mL once a day, Day 13, 1 h after daily administration
[13] = 4 mg/mL once a day, Day 14, 1 h after daily administration
[14] = 4 mg/mL, Day 1, 1 h after administration
[15] = 4 mg/mL, Day 1, 2 h after administration
[16] = 4 mg/mL, Day 1, 4 h after administration
[17] = 4 mg/mL, Day 1, 6 h after administration
[18] = 4 mg/mL, Day 1, 8 h after administration
[19] = 4 mg/mL, Day 1, 10 h after administration
[20] = 4 mg/mL, Day 1, before administration

## C[C@H]1CNCCCN1S(=O)(=O)c1cccc2cncc(F)c12 [K-115, reference compound]
[1]
  Average intraocular pressure in both eyes: 6.83 mmHg
  Change in intraocular pressure: 4.25 mmHg
[2]
  Average intraocular pressure in both eyes: 6.81 mmHg
  Change in intraocular pressure: 3.58 mmHg
[3]
  Average intraocular pressure in both eyes: 6.92 mmHg
  Change in intraocular pressure: 3.69 mmHg
[4]
  Average intraocular pressure in both eyes: 6.67 mmHg
  Change in intraocular pressure: 4.3 mmHg
[5]
  Average intraocular pressure in both eyes: 6.75 mmHg
  Change in intraocular pressure: 2.56 mmHg
[6]
  Average intraocular pressure in both eyes: 7.39 mmHg
  Change in intraocular pressure: 2.67 mmHg
[7]
  Average intraocular pressure in both eyes: 7.53 mmHg
  Change in intraocular pressure: 3.78 mmHg
[8]
  Average intraocular pressure in both eyes: 7.78 mmHg
  Change in intraocular pressure: 1.66 mmHg
[9]
  Average intraocular pressure in both eyes: 7.94 mmHg
  Change in intraocular pressure: 1.81 mmHg
[10]
  Average intraocular pressure in both eyes: 7.94 mmHg
  Change in intraocular pressure: 1.75 mmHg
[11]
  Average intraocular pressure in both eyes: 7.89 mmHg
  Change in intraocular pressure: 1.64 mmHg
[12]
  Average intraocular pressure in both eyes: 8.25 mmHg
  Change in intraocular pressure: 3.14 mmHg
[13]
  Average intraocular pressure in both eyes: 8.50 mmHg
  Change in intraocular pressure: 2.47 mmHg
[14]
  Average intraocular pressure in both eyes: 7.72 mmHg
  Change in intraocular pressure: 2.59 mmHg
[15]
  Average intraocular pressure in both eyes: 9.00 mmHg
  Change in intraocular pressure: 1.97 mmHg
[16]
  Average intraocular pressure in both eyes: 9.67 mmHg
  Change in intraocular pressure: 1.64 mmHg
[17]
  Average intraocular pressure in both eyes: 10.56 mmHg
  Change in intraocular pressure: 1.38 mmHg
[18]
  Average intraocular pressure in both eyes: 10.28 mmHg
  Change in intraocular pressure: 2.69 mmHg
[19]
  Average intraocular pressure in both eyes: 12.81 mmHg
  Change in intraocular pressure: 1.61 mmHg
[20]
  Average intraocular pressure in both eyes: 10.83 mmHg
  Change in intraocular pressure: −0.94 mmHg
